# ± gives the expanded uncertainty stated by the source.
# Details: Liquid, Ebulliometric method (Recirculating still)
vapor or sublimation pressure (323.15 K) [kPa],vapor or sublimation pressure (298.15 K) [kPa],SMILES
33.86 ± 0.38,–,CC#N [acetonitrile]
12.35 ± 0.087,3.166 ± 0.054,O [water]

# — the NIST ThermoML archive (doi:10.1021/je800557h)
